These results are taken from patent US6576625B2, “Targeted vesicular constructs for cytoprotection and treatment of H. pylori infections” (Panacea Biotic Limited, priority 2001, dated 2003).

The subject of this assay is NSAID induced, gastric lesions followed by colonization of gastric mucosa by orally delivered H. felis. Put plainly: Ulcer healing (cytorepairing and cytoprotective performance) in rats, Sakita's classification. To be noted: at the same MIC90 level. Format: in vivo, albino male rats of Wistar origin. As for the experimental part:
The cytorepairing and cytoprotective performance of the prepared liposomes was assessed in albino male rats of Wistar origin. The level of ulcer healing (%RUh) following the administration of liposomes against the NSAID induced, gastric lesions followed by colonization of gastric mucosa by orally delivered H. felis suspension culture was studied. The degree of ulceration and rate of ulcer healing was determined following the classification of Sakita (Sakita, T., Oguro, Y., Miwa, T., 1981, In: Handbook of Intestinal Endoscopy 1 ed., Tokyo: Chugi-Igakusha, 375-396) and Tamada (Tamada, F., 1992, In: Diagnostic and Therapeutic Gastrointestinal Endoscopy, KSH Hospital, 23-25), both incorporated herein by reference. Histopathological examination of the gastric mucosa was done using phase contrast research microscope (Leitz-Biomed, Germany).

Regarding `CC1(C)S[C@@H]2[C@H](NC(=O)[C@H](N)c3ccc(O)cc3)C(=O)N2[C@H]1C(=O)O` [amoxycillin, Amoxycillin], the “recovery (ulcer healing)” value amounted to 33.3%.
